Data on 13 molecules can be found in US8198302B2 (OXiGENE, Inc., priority 2004, dated 2012).

For test [1], the target named is T1, Horseradish peroxidase (HRP) (Armoracia rusticana, UniProt P00433).
T1 construct: purchased Sigma P6782
T1 sequence (P00433 31-338 limits assumed): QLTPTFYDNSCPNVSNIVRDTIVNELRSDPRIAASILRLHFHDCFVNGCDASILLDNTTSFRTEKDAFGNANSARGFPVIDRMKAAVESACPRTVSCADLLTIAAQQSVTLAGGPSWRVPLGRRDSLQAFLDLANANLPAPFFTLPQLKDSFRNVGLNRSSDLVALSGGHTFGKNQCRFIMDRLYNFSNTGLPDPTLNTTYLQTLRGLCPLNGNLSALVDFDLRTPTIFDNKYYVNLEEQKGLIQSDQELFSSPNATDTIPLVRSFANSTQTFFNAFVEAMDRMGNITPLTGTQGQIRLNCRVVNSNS
The test is described as follows: Peroxidase-mediated activation of catechols (HPLC loss of peak area). The class given is biochemical. The settings on record: for Relative Activation (% Control): relative to non-catechol control = 100; for Slope/Hrp: slope divided by HRP concentration (ug/ml): corrected disappearance. The protocol: Methods: catechols were dissolved in DMSO immediately prior to assay (10 mM). HRP (Sigma, P6782, 1000 units/mg), was dissolved in phosphate buffered saline (PBS) at a concentration of 40 ug/ml. Fresh hydrogen peroxide (50 mM) was prepared from a 30% w/w solution (Sigma, H1009). Incubations were carried out in a water bath maintained at 37° C. Exact volumes varied depending on the catechol, but typically they comprised 1.92 ml PBS, 20 μl DMSO, 20 μl hydrogen peroxide and 20 μl drug in a 4 ml amber glass vial. Prior to addition of the drug, the vial was pre-incubated for 10 min. The reaction was initiated by the addition of 20 μl HRP. Samples (100 μl) were then removed at intervals, added to 100 μl acetonitrile and placed on ice. At the end of the incubation, samples were centrifuged (12000 g, 1 min) to remove precipitated protein and the supernatants placed in polypropylene hplc vials for analysis. Control incubations containing no HRP were carried out in the same way.
HPLC was performed using a Waters 2695 Separations Module with a sample compartment maintained at 10° C., and a Waters 2996 Photodiode Array Detector. The column was an ACE C18, 3 μm particle size, 125×3 mm (Hichrom) maintained at 30° C. Compounds were eluted with varying proportions of A: 5 mM KH2PO4, 5 mM H3PO4, and B: 75% acetonitrile, 25% water at a flow rate of […], in order to achieve a similar starting peak area for each catechol. Occasionally, in order to achieve a better resolution of the products, the latter was replaced with 100% methanol. Spectral data was collected from 220 nm to 500 nm, sampling rate 2/sec, 1.2 nm resolution. Data was analysed using Waters Millennium software.
Results: The loss of peak area at 300 nm of the prodrug was plotted against time, and a straight line fitted to the data. Loss of peak area was used to approximate the relative rates of loss of each catechol. The slope of the line-of-best-fit was then divided by the HRP concentration to give a corrected disappearance (see Table 3).

For a further test, the system named is tumor cells. The test is described as follows: Tumor cell cytotoxicity, MTT assay. The class given is cell-based. As to conditions: tumor cells treated for 24 hours. The protocol:
Exponentially growing tumor cells were treated with the following compounds for 24 hours. Insoluble compounds were formulated in a small amount (0.3%) of DMSO for biological evaluation. Cell viability was determined by the calorimetric MTT assay using 3(4,5-dimethylthiazol-2-yl)-2,5-diphenyl-2H-tetrazolium bromide according to well-established procedures (see Berridge, et al. (1996) for a general protocol of this type of assay).
In general terms: Formazan colour is commonly taken as a measure of viable cells.

In the next test the test system is MHEC-5T tumors. The experiment in a line: Reduction in tumor blood flow / functional tumor vessels (fluorescent beads). The class given is in vivo, mice. As to conditions: for Blood Flow at 10 mg/kg (% vessel area of control): MHEC-5T tumor-bearing SCID mice, 24 hours after dosing. The protocol: (§1) Catechols were dissolved in 50% DMSO (2 mg/kg) prior to intravenous (iv) administration (i.v.) to tumor-bearing mice. MHEC-5T tumors were established by subcutaneous injection of 0.5×10^6 cultured MHEC5-T cells (German Collection of Microorganisms and Cell Culture, Braunschweig, Germany) into the right flank of Fox Chase CB-17 severe combined immunodeficient (SCID) mice. Tumor grafts grew palpable within one week and reached the limited size (15×15 mm) within 10 days. Tumor bearing mice were injected intraperitoneally with saline control or various dosages of CA1P or CA4P after the transplanted tumor reached a size of 300 mm^3 (a size without development of necrosis). Twenty-four hours later they were injected with 0.25 ml of fluorescent FluoSphere beads (0.1 μm beads conjugated with blue fluorescent tag (F-8789, Molecular Probes, Eugene, Oreg.) and diluted 1:6 in physiological saline) in the tail vein, and sacrificed after 3 minutes. Tumors were then excised for cryosections. Cryosections of 8 μm thickness were directly examined under a fluorescent microscope. Functional blood vessels were indicated by blue fluorescence from injected microbeads. For quantification, three sections from three tumors treated in each group were examined and in each section, more than 70% of the area was automatically recorded with a microscopic digital camera at ×10 magnification. A computer program named Stage Pro (Media Cybernetics, Md.) was used to control the picture recording. Image analysis was performed with Image Plus software (Media Cybernetics, Md.). The results were expressed as vessel area per mm^2 in percentage of the control in Table 2.
as §1, with “The effect of CA1P on tumor blood flow was evaluated by quantifying the number of functional tumor vessels” for “Catechols were dissolved”, “treated murine tumors.” for “50% DMSO (2 mg/kg) prior to intravenous (iv) administration (i.v.) to tumor-bearing mice.”, “as in Example 4c.” for “by subcutaneous injection of 0.5×10^6 cultured MHEC5-T cells (German Collection of Microorganisms and Cell Culture, Braunschweig, Germany) into the right flank of Fox Chase CB-17 severe combined immunodeficient (SCID) mice. Tumor grafts grew palpable within one week and reached the limited size (15×15 mm) within 10 days.”, “MD)” for “Md.)”, “MD).” for “Md.).”, “control.” for “control in Table 2.”

For test [2], the system named is murine adenocarcinoma CaNT. The experiment in a line: Functional vascular volume of tumor vessels (Hoechst 333342). The class given is in vivo, mice. The protocol:
The effect of CA1P on tumor blood flow was evaluated by quantification of the functional volume of tumor vessels in treated murine tumors using a procedure previously described in detail and incorporated by reference herein (Smith K A, Br. J. Cancer, 57:247-253, 1988). The murine adenocarcinoma CaNT was grown subcutaneously on the back of 12- to 16-week old CBA/Gy fTO mice. Tumors were initiated by the injection of 0.05 ml of a crude tumor cell suspension prepared from a donor mouse. Animals were selected for treatment after 3 or 4 weeks, when tumors had reached a geometric mean diameter of 5 to 6.5 mm. CA1P and CA4P were dissolved in 0.9% saline at various concentrations and injected intraperitoneally into tumor bearing mice. Each treatment group consisted of between five and nine mice. A control treatment group was injected with 0.9% saline. At 24 hours post-injection, each mouse was injected intravenously with a 10 mg/kg dose of the fluorescent DNA-binding dye Hoechst 333342 and sacrificed 1 minute later. Tumors were immediately excised and bisected. Frozen tumor sections were cut at three levels and viewed under UV excitation where the fluorescent staining of perivascular cells identified perfused vessels. Vascular volumes were quantified based on a random point scoring system previously described and incorporated by reference herein (Chalkley H W, J. Natl Cancer Institute, 4: 47-53, 1943). All estimates were based on counting 100 fields from sections cut at each of the 3 different levels and the calculated vascular volumes were expressed as a percentage of the mean value for control tumors.

Test [3] deals with murine adenocarcinoma CaNT. The test is described as follows: Tumor growth control in CaNT murine tumor model. Format: in vivo, mice. The settings on record: single doses of 100, 200, and 400 mg/kg i.p., FIG. 5. The protocol: The murine adenocarcinoma CaNT was grown subcutaneously on the back of 12- to 16-week old CBA/Gy fTO mice. Tumors were initiated by the injection of 0.05 ml of a crude tumor cell suspension prepared from a donor mouse. Animals were selected for treatment after 3 or 4 weeks, when tumors had reached a geometric mean diameter of 5 to 6.5 mm. CA1P and CA4P were dissolved in 0.9% saline at various concentrations and injected intraperitoneally into tumor bearing mice. Each treatment group consisted of between five and nine mice. A control treatment group was injected with 0.9% saline.

The subject of a further test is Purified tubulin. The test is described as follows: Inhibition of tubulin polymerization (turbidimetric, 350 nm). Format: biochemical. The settings on record: purified tubulin 1 mg/ml, read-out: Tubulin Binding (uM IC50). The procedure:
The method of Verdier-Pinard (1998, Molec. Pharmacol. 53, 62-76) was used to assay catechol compounds for inhibition of tubulin polymerization. Tubulin polymerization was followed turbidimetrically at 350 nm on an Agilent 8453 spectrophotometer equipped with a kinetics program, a jacketed cell holder, and two microprocessor-controlled water baths. Purified tubulin (1 mg/ml) was induced to polymerize in a monosodium glutamate/GTP solution by a jump in temperature. Absorbance was recorded every 10 seconds and the data was analyzed by a GraphPad Prism program.

As usually defined, the IC50 is the midpoint of a concentration-inhibition curve. For the molecule `COc1cc(/C=C\c2ccc(F)c(O)c2O)cc(OC)c1OC`, in test [1], the “Relative Activation (% Control)” value came out at 0.006 % Control and the Slope/Hrp is listed as −6675900. The IC50 in the test with tumor cells (24 h) was 0.546 µM.

Take `COc1cc(/C=C\c2ccc(O)c(O)c2O)cc(OC)c1OC`: the “Blood Flow at 10 mg/kg (% vessel area of control)” value in the test on MHEC-5T tumors was 26.7 % vessel area of control. In addition, 0.069 µM corresponded to half-maximal inhibition in the test on tumor cells (24 h) (IC50).

`COc1cc(/C=C\c2ccc([N+](=O)[O-])c(O)c2O)cc(OC)c1OC`: in test [1], the Slope/Hrp was −1902300. Moreover, in the test on tumor cells (24 h), half-maximal inhibition (IC50) required 0.28 µM.

Regarding `C=CCOc1ccc(/C=C\c2cc(OC)c(OC)c(OC)c2)c(O)c1O`, in the test on MHEC-5T tumors, the “Blood Flow at 10 mg/kg (% vessel area of control)” value is given as 60 % vessel area of control. In addition, in test [1], the Slope/Hrp is −16925. In addition, the midpoint of inhibition with tumor cells (24 h), the IC50, lay at 0.007 µM.

`COc1ccc(/C=C\c2cc(OC)c(OC)c(OC)c2)cc1OP(=O)([O-])[O-].[Na+].[Na+]` [CA4P, Combretastatin A-4 Disodium Phosphate Prodrug, reference compound]: the “effect on vascular volume” value in test [2] (doses below 50 mg/kg i.p.) is given as “no significant effect”. Moreover, the “dose required to produce an effect similar to that of 1 mg/kg of CA1P” value in test [2] (functional vascular volume) was determined as 25 mg/kg. For the same molecule, in the test on MHEC-5T tumors (functional vessel number per mm^2, i.p., 24 hr, MHEC-5T tumors), the “ED50 (vascular effect)” value was determined as 43 mg/kg. Moreover, the “blood flow in the central region of tumors” value in the test with MHEC-5T tumors (spatial distribution of blood vessel shutdown) was “blood flow reduction”. The “effect on tumor growth” value in test [3] is given as “no measurable effect on tumor growth”.

With `COc1cc(/C=C\c2cccc(OP(=O)([O-])[O-])c2OP(=O)([O-])[O-])cc(OC)c1OC.[Na+].[Na+].[Na+].[Na+]` [ZSB-36, 2′,3′diphosphate-3,4,5-trimethoxy-(Z)-stilbene, tetrasodium salt], in the test with MHEC-5T tumors, the “Blood Flow at 10 mg/kg (% vessel area of control)” value was 94 % vessel area of control. The molecule further displayed an IC50 in the test with tumor cells of 0.4 µM.

`COc1cc(/C=C\c2cc(Br)cc(O)c2O)cc(OC)c1OC` [ZSB-74, 4-Bromo-6-[(Z)-2-(3,4,5-trimethoxyphenyl)vinyl]-1,2-dihydroxybenzene]: in test [1], the “Relative Activation (% Control)” value is listed as 0.203 % Control. For the same molecule, the Slope/Hrp in test [1] is listed as −182825. Moreover, the IC50 in the test with tumor cells (24 h) is 0.34 µM; in the test with Purified tubulin it was 2.1 µM.

`COc1cc(/C=C\c2ccc(C)c(O)c2O)cc(OC)c1OC` [ZSB-75, 3-Methyl-6-[(Z)-2-(3,4,5-trimethoxyphenyl)vinyl]-1,2-dihydroxybenzene]: in test [1], the “Relative Activation (% Control)” value is on record as 1.703 % Control and the Slope/Hrp is on record as −21783. In the test on tumor cells (24 h), this molecule returned an IC50 of 0.9 µM.

Consider `CCc1ccc(/C=C\c2cc(OC)c(OC)c(OC)c2)c(O)c1O` [ZSB-76, 3-Ethyl-6-[(Z)-2-(3,4,5-trimethoxyphenyl)vinyl]-1,2-dihydroxybenzene], for which, in test [1], the “Relative Activation (% Control)” value turned out to be 6.743 % Control and the Slope/Hrp was −5502. Inhibition with tumor cells (24 h) was half-maximal at 0.542 µM (IC50).

With `C=CCc1ccc(/C=C\c2cc(OC)c(OC)c(OC)c2)c(O)c1O` [ZSB-77, 3-Allyl-6-[(Z)-2-(3,4,5-trimethoxyphenyl)vinyl]-1,2-dihydroxybenzene], in test [1], the “Relative Activation (% Control)” value came to 1.875 % Control and the Slope/Hrp is given as −19783. In addition, half-maximal inhibition in the test with tumor cells (24 h) (IC50) was put at 0.748 µM.

With `COc1cc(/C=C\c2cc(-c3ccccc3)cc(O)c2O)cc(OC)c1OC` [ZSB-80, 4-Phenyl-6-[(Z)-2-(3,4,5-trimethoxyphenyl)vinyl]-1,2-dihydroxybenzene], in test [1], the “Relative Activation (% Control)” value was found to be 0.017 % Control and the Slope/Hrp is on record as −2158250. The molecule also displayed an IC50 in the test on tumor cells of 1.56 µM.

Consider `CCOc1ccc(/C=C\c2cc(OC)c(OC)c(OC)c2)c(O)c1O` [ZSB-81], for which the IC50 with tumor cells came to 0.094 µM.

In the case of `COc1cc(/C=C\c2cccc(O)c2O)cc(OC)c1OC` [ZSB-82, 6-[(Z)-2-(3,4,5-Trimethoxyphenyl)vinyl]-1,2-dihydroxybenzene], in test [1], the “Relative Activation (% Control)” value is reported as 0.029 % Control and the Slope/Hrp is recorded as −1269800. For the same molecule, in the test on tumor cells (24 h), half-maximal inhibition (IC50) required 0.143 µM. Further, the IC50 in the test on Purified tubulin was found to be 6.2 µM.
